Experimental data published in patent publication US6326020A (priority 1998, dated 2001).

Key:
sciatic nerve [1] = tested on: sciatic nerve; design: species or system Sprague-Dawley rat; conditions: rat, in vivo
sciatic nerve [2] = tested on: sciatic nerve; design: species or system Sprague-Dawley rat; conditions: rat, in vivo; remark: listed apart in the source
sciatic nerve [3] = tested on: sciatic nerve; design: species or system Sprague-Dawley rat; conditions: rat, in vivo; remark: listed apart in the source
sciatic nerve [4] = tested on: sciatic nerve; design: species or system Sprague-Dawley rat; conditions: rat, in vivo; remark: listed apart in the source
thermal nociception = conditions: rat, in vivo
sciatic nerve [5] = conditions: rat, in vivo
nerve block = tested on: nerve block; design: species or system human; conditions: in vivo

CCCCN1CCCCC1C(=O)Nc1c(C)cccc1C (centres unmarked) [Bupivacaine, bupivacaine]
"Missed block" rate (sciatic nerve [1]): 0%
Modalities impaired (sciatic nerve [1]): all four modalities were impaired in all rats
Rate of successful block (sciatic nerve [1]): 100%
Duration of Effective Block, PPR (sciatic nerve [2]): 162 ± 44 min
Duration of Effective Block, Hop (sciatic nerve [3]): 143 ± 48 min
Duration of Effective Block, EPT (sciatic nerve [4]): 190 ± 56 min
Duration of block, thermal nociception (thermal nociception): 104 ± 18 min

Oc1cc2c(cc1O)CN(C(=S)NCCc1ccc(Cl)cc1)CCC2 [capsazepine]
Reversal of established block from vanilloid-site 1 toxin combination (sciatic nerve [5]): reverses established block

COc1cc(CNC(=O)CCCC/C=C/C(C)C)ccc1O [capsaicin, trans-8-methyl-N-vanillyl-6-nonenamide]
Dose required for prolonged block with TTX, fold below threshold for block from the vanilloid alone (sciatic nerve [5]): more than 5 fold
Duration of prolonged block (sciatic nerve [5]): 2 days
Duration of prolonged block (nerve block): 3 to 4 days

C=C(C)C12CC(C)C34OC(Cc5ccccc5)(OC1C3C=C(COC(=O)Cc1ccc(O)c(OC)c1)CC1(O)C(=O)C(C)=CC14)O2 (centres unmarked) [resiniferotoxin]
Dose required for prolonged block with TTX, fold below threshold for block from the vanilloid alone (sciatic nerve [5]): more than 5 fold
Duration of prolonged block (sciatic nerve [5]): 2 days
Duration of prolonged block (nerve block): 3 to 4 days
